Laboratory results: ChEMBL document CHEMBL4507282, “Data for DCP probe BI-1950” (2021)

What was measured:
[1] = target: RAF proto-oncogene serine/threonine-protein kinase (Homo sapiens) (UniProt P04049); details: Compound concentration 1000.0 nM
[2] = target: MAP kinase-interacting serine/threonine-protein kinase 1 (Homo sapiens) (UniProt Q9BUB5); details: Compound concentration 1000.0 nM
[3] = target: Serine/threonine-protein kinase 4 (Homo sapiens) (UniProt Q13043); details: Compound concentration 1000.0 nM
Sequence of Serine/threonine-protein kinase 4 (Homo sapiens) (Q13043 whole entry): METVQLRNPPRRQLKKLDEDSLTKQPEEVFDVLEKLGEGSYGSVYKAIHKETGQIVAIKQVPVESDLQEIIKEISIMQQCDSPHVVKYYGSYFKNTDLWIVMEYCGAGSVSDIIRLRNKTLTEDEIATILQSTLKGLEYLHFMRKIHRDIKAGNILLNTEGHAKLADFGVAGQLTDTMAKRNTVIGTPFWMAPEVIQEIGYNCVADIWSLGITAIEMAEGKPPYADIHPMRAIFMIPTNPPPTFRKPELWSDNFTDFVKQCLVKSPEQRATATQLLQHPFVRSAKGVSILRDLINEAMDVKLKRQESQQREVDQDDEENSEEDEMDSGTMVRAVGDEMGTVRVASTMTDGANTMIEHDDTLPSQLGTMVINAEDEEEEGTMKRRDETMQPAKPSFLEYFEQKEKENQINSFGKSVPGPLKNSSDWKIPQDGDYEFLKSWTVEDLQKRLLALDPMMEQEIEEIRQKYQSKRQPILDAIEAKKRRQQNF

[4] = tested on: Epidermal growth factor receptor (Homo sapiens), P00533 [UNDEFINED MUTATION]; details: Compound concentration 1000.0 nM
Sequence of Epidermal growth factor receptor (Homo sapiens), P00533 [UNDEFINED MUTATION] (P00533 whole entry, looked up, change not shown): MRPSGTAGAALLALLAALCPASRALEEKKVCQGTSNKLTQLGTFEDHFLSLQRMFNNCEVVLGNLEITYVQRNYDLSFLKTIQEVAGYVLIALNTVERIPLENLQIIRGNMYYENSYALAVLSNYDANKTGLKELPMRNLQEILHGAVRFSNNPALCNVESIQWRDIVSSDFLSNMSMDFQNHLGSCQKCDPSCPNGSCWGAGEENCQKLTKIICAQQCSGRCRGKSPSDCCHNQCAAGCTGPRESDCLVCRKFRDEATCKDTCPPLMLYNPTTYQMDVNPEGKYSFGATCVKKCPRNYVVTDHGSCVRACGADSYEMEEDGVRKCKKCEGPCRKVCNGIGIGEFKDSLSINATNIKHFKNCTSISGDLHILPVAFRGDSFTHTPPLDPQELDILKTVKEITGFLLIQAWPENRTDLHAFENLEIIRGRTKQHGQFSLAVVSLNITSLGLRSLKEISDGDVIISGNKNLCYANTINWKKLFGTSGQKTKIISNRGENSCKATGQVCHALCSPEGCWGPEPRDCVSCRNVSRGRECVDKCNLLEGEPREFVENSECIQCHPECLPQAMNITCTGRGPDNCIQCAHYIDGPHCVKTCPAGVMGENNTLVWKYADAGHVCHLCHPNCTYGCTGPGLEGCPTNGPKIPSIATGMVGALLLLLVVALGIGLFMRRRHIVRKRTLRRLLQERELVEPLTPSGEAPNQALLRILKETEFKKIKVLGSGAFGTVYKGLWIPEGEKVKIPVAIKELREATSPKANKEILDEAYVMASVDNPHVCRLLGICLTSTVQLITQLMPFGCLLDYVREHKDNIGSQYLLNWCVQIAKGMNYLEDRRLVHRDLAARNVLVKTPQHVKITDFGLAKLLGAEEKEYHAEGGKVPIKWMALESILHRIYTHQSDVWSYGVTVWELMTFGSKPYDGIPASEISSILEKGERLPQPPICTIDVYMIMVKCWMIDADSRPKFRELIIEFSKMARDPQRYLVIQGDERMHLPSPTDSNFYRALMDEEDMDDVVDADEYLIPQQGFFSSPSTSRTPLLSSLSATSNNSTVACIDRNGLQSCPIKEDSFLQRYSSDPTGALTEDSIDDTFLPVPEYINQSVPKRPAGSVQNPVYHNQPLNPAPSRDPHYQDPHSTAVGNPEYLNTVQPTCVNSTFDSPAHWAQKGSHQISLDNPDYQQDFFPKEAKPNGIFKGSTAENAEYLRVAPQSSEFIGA

[5] = target: Mitogen-activated protein kinase 15 (Homo sapiens) (UniProt Q8TD08); details: Compound concentration 1000.0 nM
[6] = target: cGMP-dependent protein kinase 2 (Homo sapiens) (UniProt Q13237); details: Compound concentration 1000.0 nM
[7] = target: Fibroblast growth factor receptor 3 (Homo sapiens) (UniProt P22607); details: Compound concentration 1000.0 nM
[8] = target: Phosphatidylinositol 4-phosphate 5-kinase type-1 gamma (Homo sapiens) (UniProt O60331); details: Compound concentration 1000.0 nM
[9] = target: Tyrosine-protein kinase Fyn (Homo sapiens) (UniProt P06241); details: Compound concentration 1000.0 nM
[10] = target: Cyclin-G-associated kinase (Homo sapiens) (UniProt O14976); details: Compound concentration 1000.0 nM
[11] = target: TGF-beta receptor type-1 (Homo sapiens) (UniProt P36897); details: Compound concentration 1000.0 nM
[12] = target: D(1A) dopamine receptor (Homo sapiens) (UniProt P21728); details: Compound concentration 10.0 uM
[13] = target: Ribosomal protein S6 kinase beta-1 (Homo sapiens) (UniProt P23443); details: Compound concentration 1000.0 nM
[14] = target: SRSF protein kinase 1 (Homo sapiens) (UniProt Q96SB4); details: Compound concentration 1000.0 nM
[15] = target: 5-hydroxytryptamine receptor 1B (Homo sapiens) (UniProt P28222); details: Compound concentration 10.0 uM
[16] = target: Serine/threonine-protein kinase PAK 4 (Homo sapiens) (UniProt O96013); details: Compound concentration 1000.0 nM
Sequence of Serine/threonine-protein kinase PAK 4 (Homo sapiens) (O96013 whole entry, looked up): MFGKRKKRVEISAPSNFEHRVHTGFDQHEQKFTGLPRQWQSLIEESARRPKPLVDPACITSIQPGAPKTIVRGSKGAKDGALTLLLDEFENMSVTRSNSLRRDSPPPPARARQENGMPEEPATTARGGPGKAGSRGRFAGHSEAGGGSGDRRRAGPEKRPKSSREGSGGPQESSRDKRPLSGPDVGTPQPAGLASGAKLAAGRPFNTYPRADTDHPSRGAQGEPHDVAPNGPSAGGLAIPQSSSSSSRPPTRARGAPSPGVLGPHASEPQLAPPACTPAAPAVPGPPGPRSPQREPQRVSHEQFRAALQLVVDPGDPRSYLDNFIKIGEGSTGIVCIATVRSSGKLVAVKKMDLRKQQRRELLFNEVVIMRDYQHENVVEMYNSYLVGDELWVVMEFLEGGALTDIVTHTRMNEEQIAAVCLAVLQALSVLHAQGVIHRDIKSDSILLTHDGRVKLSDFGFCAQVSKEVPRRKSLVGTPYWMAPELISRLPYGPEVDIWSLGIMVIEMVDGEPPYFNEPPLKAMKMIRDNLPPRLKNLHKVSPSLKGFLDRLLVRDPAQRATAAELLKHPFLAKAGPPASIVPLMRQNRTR

[17] = tested on: Mast/stem cell growth factor receptor Kit (Homo sapiens), P10721 [A829P]; details: Compound concentration 1000.0 nM
[18] = target: Maternal embryonic leucine zipper kinase (Homo sapiens) (UniProt Q14680); details: Compound concentration 1000.0 nM
[19] = target: Tyrosine-protein kinase Tec (Homo sapiens) (UniProt P42680); details: Compound concentration 1000.0 nM
[20] = target: Mitogen-activated protein kinase kinase kinase 1 (Homo sapiens) (UniProt Q13233); details: Compound concentration 1000.0 nM
[21] = tested on: Receptor-type tyrosine-protein kinase FLT3 (Homo sapiens), P36888 [K663Q]; details: Compound concentration 1000.0 nM
[22] = target: Vascular endothelial growth factor receptor 3 (Homo sapiens) (UniProt P35916); details: Compound concentration 1000.0 nM
[23] = target: Mitogen-activated protein kinase 8 (Homo sapiens) (UniProt P45983); details: Compound concentration 1000.0 nM
[24] = tested on: Fibroblast growth factor receptor 3 (Homo sapiens), P22607 [G697C]; details: Compound concentration 1000.0 nM
[25] = target: Citron Rho-interacting kinase (Homo sapiens) (UniProt O14578); details: Compound concentration 1000.0 nM
[26] = tested on: Receptor-type tyrosine-protein kinase FLT3 (Homo sapiens), P36888 [UNDEFINED MUTATION]; details: Compound concentration 1000.0 nM
[27] = target: Dual specificity protein kinase CLK3 (Homo sapiens) (UniProt P49761); details: Compound concentration 1000.0 nM
[28] = target: Mitogen-activated protein kinase kinase kinase 4 (Homo sapiens) (UniProt Q9Y6R4); details: Compound concentration 1000.0 nM
[29] = target: Dual specificity protein kinase CLK1 (Homo sapiens) (UniProt P49759); details: Compound concentration 1000.0 nM
[30] = target: Ankyrin repeat and protein kinase domain-containing protein 1 (Homo sapiens) (UniProt Q8NFD2); details: Compound concentration 1000.0 nM
[31] = tested on: Tyrosine-protein kinase ABL1 (Homo sapiens), P00519 [H396P]; details: Compound concentration 1000.0 nM
[32] = target: Focal adhesion kinase 1 (Homo sapiens) (UniProt Q05397); details: Compound concentration 1000.0 nM
[33] = tested on: Epidermal growth factor receptor (Homo sapiens), P00533 [UNDEFINED MUTATION]; details: Compound concentration 1000.0 nM; remark: listed apart in the source
[34] = target: Activin receptor type-1 (Homo sapiens) (UniProt Q04771); details: Compound concentration 1000.0 nM
[35] = target: MAP kinase-interacting serine/threonine-protein kinase 2 (Homo sapiens) (UniProt Q9HBH9); details: Compound concentration 1000.0 nM
[36] = target: Mitogen-activated protein kinase kinase kinase 19 (Homo sapiens) (UniProt Q56UN5); details: Compound concentration 1000.0 nM
[37] = target: Ribosomal protein S6 kinase alpha-5 (Homo sapiens) (UniProt O75582); details: Compound concentration 1000.0 nM
[38] = target: Cyclin-dependent kinase 19 (Homo sapiens) (UniProt Q9BWU1); details: Compound concentration 1000.0 nM
[39] = target: Ribosomal protein S6 kinase alpha-2 (Homo sapiens) (UniProt Q15349); details: Compound concentration 1000.0 nM
[40] = target: Cyclin-dependent kinase-like 2 (Homo sapiens) (UniProt Q92772); details: Compound concentration 1000.0 nM
Sequence of Cyclin-dependent kinase-like 2 (Homo sapiens) (Q92772 whole entry): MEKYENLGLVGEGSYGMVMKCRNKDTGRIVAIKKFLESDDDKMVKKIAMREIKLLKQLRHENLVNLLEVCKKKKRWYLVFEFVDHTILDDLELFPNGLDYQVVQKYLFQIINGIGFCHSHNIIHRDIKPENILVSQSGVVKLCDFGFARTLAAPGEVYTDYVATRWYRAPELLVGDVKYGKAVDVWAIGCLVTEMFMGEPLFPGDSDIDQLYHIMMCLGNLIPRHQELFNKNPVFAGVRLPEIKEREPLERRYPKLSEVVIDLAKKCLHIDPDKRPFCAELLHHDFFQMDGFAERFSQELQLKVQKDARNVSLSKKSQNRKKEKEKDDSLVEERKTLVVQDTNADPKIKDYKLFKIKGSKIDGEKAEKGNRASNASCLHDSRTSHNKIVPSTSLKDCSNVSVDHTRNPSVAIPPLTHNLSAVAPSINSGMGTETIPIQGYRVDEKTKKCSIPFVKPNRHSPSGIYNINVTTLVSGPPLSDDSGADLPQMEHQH

[41] = target: Serine/threonine-protein kinase SBK1 (Homo sapiens) (UniProt Q52WX2); details: Compound concentration 1000.0 nM
[42] = target: Casein kinase I isoform gamma-2 (Homo sapiens) (UniProt P78368); details: Compound concentration 1000.0 nM
[43] = target: Homeodomain-interacting protein kinase 2 (Homo sapiens) (UniProt Q9H2X6); details: Compound concentration 1000.0 nM
[44] = target: Serine/threonine-protein kinase WNK2 (Homo sapiens) (UniProt Q9Y3S1); details: Compound concentration 1000.0 nM
Sequence of Serine/threonine-protein kinase WNK2 (Homo sapiens) (Q9Y3S1 whole entry): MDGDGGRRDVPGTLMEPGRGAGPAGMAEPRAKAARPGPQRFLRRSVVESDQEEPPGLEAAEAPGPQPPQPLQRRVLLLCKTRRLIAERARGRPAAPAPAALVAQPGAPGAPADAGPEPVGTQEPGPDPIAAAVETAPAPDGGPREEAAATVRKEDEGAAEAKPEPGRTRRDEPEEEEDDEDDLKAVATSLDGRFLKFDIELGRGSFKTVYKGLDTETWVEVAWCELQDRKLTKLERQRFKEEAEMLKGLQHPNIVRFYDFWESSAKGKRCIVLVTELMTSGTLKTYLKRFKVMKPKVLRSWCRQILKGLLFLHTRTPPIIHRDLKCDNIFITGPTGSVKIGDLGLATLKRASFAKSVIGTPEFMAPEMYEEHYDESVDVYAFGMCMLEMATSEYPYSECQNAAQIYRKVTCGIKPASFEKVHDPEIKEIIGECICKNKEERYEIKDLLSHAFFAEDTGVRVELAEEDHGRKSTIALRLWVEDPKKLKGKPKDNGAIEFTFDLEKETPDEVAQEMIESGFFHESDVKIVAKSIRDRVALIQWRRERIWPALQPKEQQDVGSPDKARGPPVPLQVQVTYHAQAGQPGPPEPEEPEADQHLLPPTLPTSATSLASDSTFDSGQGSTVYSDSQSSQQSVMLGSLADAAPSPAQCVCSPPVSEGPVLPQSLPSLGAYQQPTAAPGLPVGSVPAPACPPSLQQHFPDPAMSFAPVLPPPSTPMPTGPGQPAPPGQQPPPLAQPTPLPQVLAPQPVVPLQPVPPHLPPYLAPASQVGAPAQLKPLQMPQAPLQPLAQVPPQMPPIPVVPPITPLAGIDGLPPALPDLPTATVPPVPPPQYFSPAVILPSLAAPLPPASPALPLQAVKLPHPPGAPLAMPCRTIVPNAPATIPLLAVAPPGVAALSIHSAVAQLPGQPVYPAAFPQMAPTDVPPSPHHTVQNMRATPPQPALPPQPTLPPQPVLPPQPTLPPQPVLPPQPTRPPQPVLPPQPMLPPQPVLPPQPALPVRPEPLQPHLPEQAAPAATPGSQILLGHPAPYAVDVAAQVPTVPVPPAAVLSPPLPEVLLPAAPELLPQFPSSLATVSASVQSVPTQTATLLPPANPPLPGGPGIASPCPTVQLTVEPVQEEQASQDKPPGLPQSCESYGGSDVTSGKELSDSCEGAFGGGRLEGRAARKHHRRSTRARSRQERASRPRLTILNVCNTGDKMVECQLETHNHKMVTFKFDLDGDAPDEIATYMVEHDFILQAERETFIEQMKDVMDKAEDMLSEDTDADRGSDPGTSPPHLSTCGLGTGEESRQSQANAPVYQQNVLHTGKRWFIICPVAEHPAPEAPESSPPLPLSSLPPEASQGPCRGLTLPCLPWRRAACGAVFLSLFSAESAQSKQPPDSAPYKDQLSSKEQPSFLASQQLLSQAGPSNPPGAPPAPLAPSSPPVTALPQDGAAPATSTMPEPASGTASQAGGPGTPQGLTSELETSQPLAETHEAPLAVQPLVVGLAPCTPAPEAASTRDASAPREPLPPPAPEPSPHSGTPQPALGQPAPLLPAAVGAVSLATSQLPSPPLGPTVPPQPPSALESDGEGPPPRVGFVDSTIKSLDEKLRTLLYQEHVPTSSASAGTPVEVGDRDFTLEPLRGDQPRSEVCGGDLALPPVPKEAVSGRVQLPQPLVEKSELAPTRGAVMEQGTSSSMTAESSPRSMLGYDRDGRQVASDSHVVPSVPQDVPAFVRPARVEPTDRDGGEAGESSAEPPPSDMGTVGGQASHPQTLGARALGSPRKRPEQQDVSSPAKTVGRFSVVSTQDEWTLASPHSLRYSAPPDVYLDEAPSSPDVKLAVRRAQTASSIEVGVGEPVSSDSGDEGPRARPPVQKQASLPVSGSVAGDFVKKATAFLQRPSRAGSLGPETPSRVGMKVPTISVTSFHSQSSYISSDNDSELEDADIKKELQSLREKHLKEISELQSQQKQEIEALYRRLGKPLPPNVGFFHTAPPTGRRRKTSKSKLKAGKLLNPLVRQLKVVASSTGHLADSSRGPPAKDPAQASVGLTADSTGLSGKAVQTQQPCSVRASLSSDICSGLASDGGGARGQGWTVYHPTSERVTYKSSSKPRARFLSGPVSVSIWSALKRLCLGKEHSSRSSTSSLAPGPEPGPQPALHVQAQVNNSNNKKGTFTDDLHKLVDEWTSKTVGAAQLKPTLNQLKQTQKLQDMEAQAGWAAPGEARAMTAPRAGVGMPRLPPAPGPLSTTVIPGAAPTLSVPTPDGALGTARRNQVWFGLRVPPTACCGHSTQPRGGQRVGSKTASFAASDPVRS

[45] = target: Cyclin-dependent kinase-like 3 (Homo sapiens) (UniProt Q8IVW4); details: Compound concentration 1000.0 nM

C[C@H](NC(=O)c1cnc2n1[C@](C)(Cc1ccc(C#N)cc1)C(=O)N2c1cc(Cl)c(F)c(Cl)c1)C(=O)NC1(c2ccccn2)CC1 [BI 1950]
inactive: residual activity [1] 100% | residual activity [2] 93% | residual activity [3] 100% | residual activity [4] 100% | residual activity [5] 100% | residual activity [6] 85% | residual activity [7] 100% | residual activity [8] 80% | residual activity [9] 70% | residual activity [10] 92% | residual activity [11] 82% | inhibition [12] 1.26% | residual activity [13] 100% | residual activity [14] 81% | inhibition [15] 16.5% | residual activity [16] 100% | residual activity [17] 100% | residual activity [18] 86% | residual activity [19] 75% | residual activity [20] 100% | residual activity [21] 100% | residual activity [22] 100% | residual activity [23] 81% | residual activity [24] 100% | residual activity [25] 100% | residual activity [26] 100% | residual activity [27] 96% | residual activity [28] 97% | residual activity [29] 86% | residual activity [30] 100% | residual activity [31] 83% | residual activity [32] 100% | residual activity [33] 100% | residual activity [34] 97% | residual activity [35] 100% | residual activity [36] 100% | residual activity [37] 96% | residual activity [38] 81% | residual activity [39] 100% | residual activity [40] 100% | residual activity [41] 100% | residual activity [42] 90% | residual activity [43] 100% | residual activity [44] 100% | residual activity [45] 100%

C[C@@]1(Cc2ccc(C#N)cc2)C(=O)N(c2cc(Cl)cc(Cl)c2)c2ncc(C(=O)NC3(c4nc(C5CCC5)no4)CC3)n21 [BI 9446]
inactive: residual activity [1] 100% | residual activity [2] 100% | residual activity [3] 92% | residual activity [4] 100% | residual activity [5] 100% | residual activity [6] 100% | residual activity [7] 100% | residual activity [8] 100% | residual activity [9] 89% | residual activity [10] 100% | residual activity [11] 100% | inhibition [12] 18.6% | residual activity [13] 100% | residual activity [14] 94% | inhibition [15] 17.5% | residual activity [16] 98% | residual activity [17] 100% | residual activity [18] 89% | residual activity [19] 92% | residual activity [20] 100% | residual activity [21] 100% | residual activity [22] 100% | residual activity [23] 100% | residual activity [24] 100% | residual activity [25] 100% | residual activity [26] 100% | residual activity [27] 100% | residual activity [28] 100% | residual activity [29] 100% | residual activity [30] 100% | residual activity [31] 100% | residual activity [32] 100% | residual activity [33] 97% | residual activity [34] 89% | residual activity [35] 100% | residual activity [36] 100% | residual activity [37] 100% | residual activity [38] 76% | residual activity [39] 100% | residual activity [40] 100% | residual activity [41] 95% | residual activity [42] 91% | residual activity [43] 100% | residual activity [44] 100% | residual activity [45] 100%
